{
  "source": "patent US5998437A",
  "about": "“Benzimidazole derivatives” (Otsuka Pharmaceutical Co., Ltd., priority 1995, dated 1999)",
  "key": {"[1]": {"molecular_target": "T1, cGMP-PDE (Homo sapiens, UniProt O76074)", "T1 construct": "Separation and partial purification of PDE (phosphodiesterase) from human platelets; from tissue; host or cells: human platelets (supernatant, DEAE-cellulose FI fraction)", "assay": "Activity for inhibiting cGMP PDE (PDE partially purified from human platelets, FI fraction)", "assay_type": "biochemical", "conditions": "0.4 μM of [3H]-cGMP", "method": "(1) Measurement of the Activity for Inhibiting cGMP PDE\nSeparation and partial purification of PDE (phosphodiesterase) from human platelets, and measurement of the activity for inhibiting cGMP PDE were conducted by the method of Hidaka, et al. [Biochimica et Biophysica Acta, Vol. 429, (1976), pp. 485-497]. The platelets obtained from human healthy adult were washed, and suspended in TRIS-buffer solution, then said suspension was treated by centrifugal separation, the supernatant was subjected to a DEAE-cellulose treatment and fractionated into FI to FIII fractions by a method of concentration gradient of sodium acetate. Thus obtained FI fraction was used as the sample of cGMP-PDE. The activity for inhibiting cGMP-PDE was measured by using 0.4 μM of [^3 H]-cGMP."}, "[2]": {"system": "chronic contactive dermatitis", "assay": "Activity for inhibiting chronic contactive dermatitis (TNCB, ear pinna)", "assay_type": "in vivo, Balb/c strain male mouse", "conditions": "for Thickness of ear pinna (×10 μm): control 137.1 ± 6.2, 8 animals; for Inhibition rate (%): ear pinna thickness", "method": "(5) Determination of the Activity for Inhibiting Chronic Contactive Dermatitis\nThe activity for inhibiting chronic contactive dermatitis [J. Dermatol. Sci., Vol. 8, (1994), page 54] which is analogous to atopic dermatitis being reported by Kitagaki, et al. was discussed by using the method as follows. The right-side ear pinna of Balb/c strain male mouse was subjected to antigen sensitization by coating with 20 μl of acetone solution of 1% trinitrochlorobenzene (TNCB). 7 Days after the antigen sensitization, the same right-side pinna was subjected to antigen induction by coating with 20 μl of 1% TNCB acetone solution. The treatment of antigen induction was repeated in every 2 days so as to induced chronic contactive dermatitis. In this test, increase of thickness of the right-side ear pinna was induced by passing into a chronic state of the contactive dermatitis. The test compound was dissolved in acetone-methanol (4:1 by v/v) and 20 μl of this solution was administered by coating on the right-side of ear pinna once a day from 24th day after the antigen induction for 2 weeks. As to the control, the only the solvent was similarly administered. The antigen induction by the test compound during administration period was conducted at 30 minutes before the administration. The thickness of the ear pinna of 14th day after the administration was measured by a dial thickness gauge."}, "[3]": {"conditions": "0.1% coated once a day for 2 weeks"}},
  "data": [
    {"smiles": "O=C(Nc1ccc2c(ccn2CCCn2ccnc2)c1)c1nc2ccc(Cl)cc2n1Cc1ccccc1", "note": "[Example 3, 1-benzyl-6-chloro-2-{1-[3-(imidazol-1-yl)propyl]indol-5-ylamino-carbonyl}benzimidazole]", "values": [
      {"measurement": "IC50", "setting": "[1]", "result": 0.01, "unit": "µM"},
      {"measurement": "Thickness of ear pinna (×10 μm)", "setting": "[2]; [3]", "result": "120.4 ± 5.3", "unit": "×10 μm"},
      {"measurement": "Thickness of ear pinna (×10 μm)", "setting": "[2]; 0.3% coated once a day for 2 weeks", "result": "105.0 ± 7.2", "unit": "×10 μm"},
      {"measurement": "Thickness of ear pinna (×10 μm)", "setting": "[2]; 1.0% coated once a day for 2 weeks", "result": "64.5 ± 1.6", "unit": "×10 μm"},
      {"measurement": "Inhibition rate (%)", "setting": "[2]; [3]", "result": 12, "unit": "%"},
      {"measurement": "Inhibition rate (%)", "setting": "[2]; 0.3% coated once a day for 2 weeks, * p < 0.01 vs control, Dunnett's test", "result": 23, "unit": "%"},
      {"measurement": "Inhibition rate (%)", "setting": "[2]; 1.0% coated once a day for 2 weeks, * p < 0.01 vs control, Dunnett's test", "result": 53, "unit": "%"}
    ]}
  ]
}
